Data from patent publication US11446265B2, “Reagents, compositions and methods for improving viability and function of cells, tissues and organs” (TARGA BIOMEDICAL, priority 2016, dated 2022).

Tests used:
[1] = tested on: human mesenchymal stem cells (hMSC); test: mRNA expression in hMSC by real-time PCR; type: cell-based
Source text: FIG. 25A is a table representing mRNA expression of selected genes measured by real-time PCR in human mesenchymal stem cells (hMSC) conditioned with Celastrol alone or in combination with selected adjunct agents. Results are expressed as fold change versus Vehicle-treated cells.
FIG. 25B is a table representing mRNA expression of selected genes measured by real-time PCR in human mesenchymal stem cells (hMSC) conditioned with selected Celastrol analogs alone or in combination with selected adjunct agents. Results are expressed as fold change versus Vehicle-treated cells.
Results are expressed as fold change versus Vehicle-treated cells. (Arbitrary angiogenic index: (VEGFa+FGF2+SDF1)*2) (A=Additive effect; S=Synergistic effect).
(§1) To test the second main condition, MSCs were treated with the candidate pharmaco-optimizers for 1 hour, followed by 3 hours washout period. Cell mRNA was extracted and expression of genes of interest was quantified by real time PCR. In additional MSC cultures, cells were treated for one hour, washed and cultured in low serum media for 24 hours. The media containing paracrine factors secreted by MSCs was then placed in contact with H9c2 cardiomyoblast cell line. H9c2 cells were then submitted to the hypoxia/serum starvation (<1% O2 in hypoxia chamber in low serum media for 48 hours) or oxidative stress (incubation in media for 1 hour spiked with 0-1 mM H2O2). Viability status of H9c2 cells was evaluated using the LIVE/DEAD assay as detailed above.

H9c2 cardiomyoblasts [2] = test: HO-1 and VEGFa mRNA in H9c2 cardiomyoblasts by real-time PCR; type: cell-based, rat; details: H9c2, 1-hour with Celastrol plus adjunct, 3 hour washout in normoxic or hypoxic condition
Source text: Results are expressed as fold change versus Vehicle-treated h9c2.

H9c2 cardiomyoblasts [3] = test: H9c2 viability after oxidative challenge, direct treatment with Celastrol combinations; type: cell-based, rat; details: 1-hour treatment combined with Celastrol; 1 mM H2O2 for 1 hour
[4] = tested on: human mesenchymal stem cells (hMSCs); test: VEGFa protein secreted by hMSC into culture medium; type: cell-based; details: 1-hour treatment combined with Celastrol; for VEGF protein after 48 hours in hypoxic condition: compared with normal culture; for VEGF protein after 48 hours in normal culture: normoxic
H9c2 cardiomyoblasts [5] = test: H9c2 viability under hypoxia/serum starvation (LIVE/DEAD); type: cell-based, rat; details: 1 uM
Description: For survival to hypoxic challenge and oxidative challenge, H9c2 cardiomyoblasts are submitted to the hypoxia/serum starvation (<1% O2 in hypoxia chamber in low serum media for 48 hours) or oxidative stress (incubation in media for 1 hour spiked with 0-1 mM H2O2). Viability status of H9c2 cells was evaluated using the LIVE/DEAD assay.

H9c2 cardiomyoblasts [6] = test: H9c2 viability under hypoxia/reoxygenation stress; type: cell-based, rat; details: 1 uM
Description: Next, the hypoxia/reoxygenation challenge is performed. Briefly, viability analysis was performed in rat H9c2 cardiomyoblasts as previously reported. For hypoxia/reoxygenation stress, cells were cultured in DMEM no glucose (Life Technologies), serum starved and placed in hypoxic conditions (<1% O2) for 18 h. At reoxygenation (normoxic conditions), cells were treated with Celastrol (10^−10 to 10^−6 mol/L, Cayman Chemical, Ann Arbor, Mich.), Celastrol analogs or vehicle (Dimethyl sulfoxide (DMSO), Sigma-Aldrich Canada, Oakville, ON; final concentration<1% v/v) in DMEM high glucose 1% FBS for 1 h, then reoxygenation was continued in DMEM high glucose for an additional 5 h.

[7] = tested on: human mesenchymal stem cells (hMSC); test: Proteomic analysis (mass spectrometry) of conditioned media of treated hMSC; type: cell-based; details: one hour Celastrol 10^−6 M
Description: Conditioned cell media was collected, concentrated, proteins were separated by gel electrophoresis and analyzed by mass spectrometry and identified through database search.
Briefly, rat MSCs were treated in suspension with conditioning compounds for 60 minutes. Cells were then washed, labeled with fluorescent cell tracker and injected at t=0 in rat left ischemic hindlimb. Transplanted cells were imaged in vivo until day 9 using Optix™ MX3 Molecular Imaging System from ART (FIG. 2: A,B).

[8] = tested on: rat mesenchymal stem cells (rMSC); test: mRNA expression in rMSC by real time PCR; type: cell-based; details: for effect on Celastrol-induced Catalase (CAT) mRNA expression / effect on Celastrol-induced FGF2 mRNA expression / effect on Celastrol-induced Glutathione peroxidase (GPx) mRNA expression / effect on Celastrol-induced Glutathione reductase (GR) mRNA expression / effect on Celastrol-induced HSP32 (HO-1) mRNA expression / effect on Celastrol-induced HSP70 mRNA expression / effect on Celastrol-induced Superoxide dismutase 1 (SOD1) mRNA expression / effect on Celastrol-induced VEGFα mRNA expression / effect on Celastrol-induced downregulation of TNFα mRNA / effect on Celastrol-induced HSP70 expression in two other rMSC cell lines: combined with Celastrol
Description: as §1
Combination Treatments Tested—First Experiment: Celastrol (1 μM) or Gedunin (1 μM)+EGCG (1 μM, 10 μM) or TBHQ (1 μM, 5 μM)

[9] = tested on: rat mesenchymal stem cells (rMSC); test: rMSC viability after oxidative stress (H2O2, LIVE/DEAD); type: cell-based; details: 1-hour treatment
Description: (§2) To test the first main condition, MSCs (either sourced from rat or humans) were treated with the candidate pharmaco-optimizers, washed and submitted to hypoxia/serum starvation (<1% O2 in hypoxia chamber in low serum media for 48-72 hours) or oxidative stress (incubation in media for 1 hour spiked with 0-2 mM H2O2), which mimic the major lethal stressors present in the ischemic transplant microenvironment. Viability status of cells are assessed using the LIVE/DEAD viability/cytotoxicity kit (Life Technologies™) and results are quantified by Operetta high content screening (HCS) apparatus equipped with Harmony automated analysis software (Perkin Elmer™).

[10] = tested on: rat mesenchymal stem cells (rMSC); test: rMSC viability after hypoxia/serum starvation (LIVE/DEAD); type: cell-based; details: 1-hour treatment; for protection of rMSCs from 48-hour hypoxia induced cell death: compound alone
Description: as §2

H9c2 cells = test: H9c2 viability in oxidative stress after pre-conditioning with media from treated rMSC (paracrine); type: cell-based, rat; details: 24-hour preconditioning with media from treated rMSC
Description: as §1

[11] = rMSC, 1-hour treatment and 3-hour washout
[12] = rMSC, 1-hour treatment and 3-hour washout, combined with Gedunin
[13] = 1-hour treatment and 3-hour washout, combined with Celastrol

O=C(C=Cc1ccccc1O)C=Cc1ccccc1O [Analog 2HBA, Bis(2-hydroxybenzylidene)acetone]
ranking as adjunct agent in combination with Celastrol or Celastrol analogs (gene expression) ([1]; FIGS. 25A, 25B, 26A to 26D): among top adjunct agents
mRNA expression of HO-1 (H9c2 cardiomyoblasts [2]): increased mRNA expression
mRNA expression of VEGFa (H9c2 cardiomyoblasts [2]): increased mRNA expression
viability of H9c2 cells following oxidative challenge (H9c2 cardiomyoblasts [3]): synergistic increase in viability
VEGF protein after 48 hours in hypoxic condition [4]: even greater expression of VEGF protein
VEGF protein after 48 hours in normal culture [4]: additive to synergistic increase in VEGF protein

Cc1c(O)c(O)cc2c1[C@H](C[N+](=O)[O-])C=C1[C@@]2(C)CC[C@@]2(C)[C@@H]3C[C@](C)(C(=O)O)CC[C@]3(C)CC[C@]12C [Analog 2]
protection of H9c2 cardiomyoblasts from hypoxia (H9c2 cardiomyoblasts [5]): effective
protection of H9c2 cardiomyoblasts from hypoxia/reoxygenation stress (H9c2 cardiomyoblasts [6]): effective

CC(C)c1cc2c(c(O)c1O)[C@@]13CCCC(C)(C)[C@@H]1C[C@@H]2OC3=O [Carnosol]
ranking as adjunct agent in combination with Celastrol or Celastrol analogs (gene expression) ([1]; FIGS. 25A, 25B, 26A to 26D): among top adjunct agents

CC1=C(O)C(=O)C=C2C1=CC=C1[C@@]2(C)CC[C@@]2(C)[C@@H]3C[C@](C)(C(=O)O)CC[C@]3(C)CC[C@]12C [Celastrol]
increased level of CAT in the culture media [7]: 1,7 fold
increased level of GSH in the culture media [7]: 2,8 fold
increased level of HGF in the culture media [7]: 2,1 fold
increased level of HO1 in the culture media [7]: 2,2 fold
increased level of HSP70 in the culture media [7]: 1,8 fold
increased level of HSP90a in the culture media [7]: 7,0 fold
increased level of HSP90b in the culture media [7]: 2,2 fold
increased level of MCSF in the culture media [7]: 24,4 fold
increased level of TRX in the culture media [7]: 2,5 fold

COc1cc(/C=C/C(=O)CC(=O)/C=C/c2ccc(O)c(OC)c2)ccc1O [Curcumin]
ranking as adjunct agent in combination with Celastrol or Celastrol analogs (gene expression) ([1]; FIGS. 25A, 25B, 26A to 26D): among top adjunct agents
VEGF protein after 48 hours in hypoxic condition [4]: even greater expression of VEGF protein
VEGF protein after 48 hours in normal culture [4]: additive to synergistic increase in VEGF protein

Cc1c(O)c(O)cc2c1CC=C1[C@@]2(C)CC[C@@]2(C)[C@@H]3C[C@](C)(C(=O)O)CC[C@]3(C)CC[C@]12C [Dihydrocelastrol, dihydrocelastrol]
ranking as HSP90 inhibitor from expression of HSPs, growth factors, antioxidant proteins/enzymes, cytokines, matrix remodeling proteins ([1]; FIGS. 25A, 25B, 26A to 26D): best HSP90 inhibitors

O=C(O[C@@H]1Cc2c(O)cc(O)cc2O[C@@H]1c1cc(O)c(O)c(O)c1)c1cc(O)c(O)c(O)c1 [EGCG, epigallocatechin gallate]
effect on Celastrol-induced Catalase (CAT) mRNA expression [8, 11]: synergistic increase
effect on Celastrol-induced FGF2 mRNA expression [8, 11]: synergistic increase
effect on Celastrol-induced Glutathione peroxidase (GPx) mRNA expression [8, 11]: synergistic increase
effect on Celastrol-induced Glutathione reductase (GR) mRNA expression [8, 11]: synergistic increase
effect on Celastrol-induced HSP32 (HO-1) mRNA expression [8, 11]: synergistic increase
effect on Celastrol-induced HSP70 mRNA expression [8, 11]: synergistic increase
effect on Celastrol-induced Superoxide dismutase 1 (SOD1) mRNA expression [8, 11]: synergistic increase
effect on Celastrol-induced VEGFα mRNA expression [8, 11]: synergistic increase
effect on Celastrol-induced downregulation of TNFα mRNA [8, 11]: synergistically accentuate
effect on Gedunin-induced downregulation of TNFα mRNA [8, 12]: synergistically accentuate
effect on Celastrol-induced HSP70 expression in two other rMSC cell lines [8]: synergistic increase
effect on Celastrol-induced HSP32 (HO-1) mRNA expression in human MSC [1, 13]: synergistic increase
effect on Celastrol-induced HSP70 mRNA expression in human MSC [1, 13]: synergistic increase
ranking as adjunct agent in combination with Celastrol or Celastrol analogs (gene expression) ([1]; FIGS. 25A, 25B, 26A to 26D): among top adjunct agents
mRNA expression of HO-1 (H9c2 cardiomyoblasts [2]): increased mRNA expression
mRNA expression of VEGFa (H9c2 cardiomyoblasts [2]): increased mRNA expression
viability of H9c2 cells following oxidative challenge (H9c2 cardiomyoblasts [3]): synergistic increase in viability
effect on Celastrol-induced protection of rMSCs from oxidative stress induced death ([9]; combined with Celastrol): potentiates Celastrol-induced protection
protection of rMSCs from oxidative stress induced death ([9]; compound alone): protect
effect on Celastrol-mediated protection of rMSCs from hypoxia induced cell death ([10]; combined with Celastrol): potentiates Celastrol-mediated protection
protection of rMSCs from 48-hour hypoxia induced cell death [10]: not
VEGF protein after 48 hours in hypoxic condition [4]: even greater expression of VEGF protein
VEGF protein after 48 hours in normal culture [4]: additive to synergistic increase in VEGF protein
protection of H9c2 cells from oxidative stress induced death (paracrine) (H9c2 cells): protects

CC(C)(C)c1cc(O)ccc1O [tBHQ, tert-Butylhydroquinone]
effect on Celastrol-induced Catalase (CAT) mRNA expression [8, 11]: synergistic increase
effect on Celastrol-induced FGF2 mRNA expression [8, 11]: synergistic increase
effect on Celastrol-induced Glutathione peroxidase (GPx) mRNA expression [8, 11]: synergistic increase
effect on Celastrol-induced Glutathione reductase (GR) mRNA expression [8, 11]: synergistic effect only at low dose
effect on Celastrol-induced HSP32 (HO-1) mRNA expression [8, 11]: synergistic increase
effect on Celastrol-induced HSP70 mRNA expression [8, 11]: synergistic increase
effect on Celastrol-induced Superoxide dismutase 1 (SOD1) mRNA expression [8, 11]: no effect
effect on Celastrol-induced VEGFα mRNA expression [8, 11]: decreases
effect on Celastrol-induced downregulation of TNFα mRNA [8, 11]: synergistically accentuate
FGF2 mRNA expression, combination with Gedunin [8, 12]: increased
effect on Gedunin-induced downregulation of TNFα mRNA [8, 12]: synergistically accentuate
effect on Gedunin expression of VEGF ([8]; rMSC, combined with Gedunin): decreases
effect on Celastrol-induced HSP70 expression in two other rMSC cell lines [8]: no effect
ranking as adjunct agent in combination with Celastrol or Celastrol analogs (gene expression) ([1]; FIGS. 25A, 25B, 26A to 26D): among top adjunct agents
viability of H9c2 cells following oxidative challenge (H9c2 cardiomyoblasts [3]): synergistic increase in viability
protection of rMSCs from 48-hour hypoxia induced cell death [10]: not
VEGF protein after 48 hours in hypoxic condition [4]: even greater expression of VEGF protein
VEGF protein after 48 hours in normal culture [4]: additive to synergistic increase in VEGF protein
protection of H9c2 cells from oxidative stress induced death (paracrine) (H9c2 cells): protects
